Reference: PMC3636874, “An Antedrug of the CXCL12 Neutraligand Blocks Experimental Allergic Asthma without Systemic Effect in Mice” (The Journal of Biological Chemistry, 2013)
In brackets after ≈: the same amount, converted by molar mass. Like-named read-outs stand apart in the source and are kept apart here.

Legend:
[1] = Stability in mouse lung homogenate; assay type: in vitro ADME; conditions: 37 °C; for half-life at 20 μM: mouse, mouse lung homogenate
Procedure: (§1) Solubility and stability studies were performed on a Gilson HPLC system with a photodiode array detector, an autosampler, and a Valco injector. Data acquisition and processing were performed with Trilution LC version 2.0 software. Measurements were carried out at 21 ± 1 °C. A 2.6-μm Kinetex column (50 × 4.6 mm) was used for stability studies in biological media, and a 5-μm Luna C18(2) column (50 × 4.6 mm) was used for solubility and chemical stability analysis. Both columns were purchased from Phenomenex. The injection volume was 20 μl, the mobile phase flow rate was 2 ml/min, and the following program was applied for the elution: 0–0.2 min, 0% B; 0.2–2.7 min, 0–100% B; 2.7–3.2 min, 100% B; 3.2–3.4 min, 100–0% B; 3.4–6.1 min, 0% B. Solvent B was HPLC grade acetonitrile (Sigma-Aldrich CHROMASOLV). The aqueous solvent contained 0.1% trifluoroacetic acid, and the detection wavelength was 365 nm.
Stability of chalcones was determined in mouse lung homogenate with or without HP-βCD 10% at 37 °C. Lung homogenate was prepared separately with a Fastprep® (Q-BIOgene, Illkirch, France) in PBS (one lung homogenized in 1 ml of buffer). For each compound, the incubation solutions, the sampling, and the extraction conditions were prepared as described under “Stability in Mouse Serum.”

[2] = Thermodynamic solubility (HPLC); assay type: physicochemical; conditions: for solubility: phosphate-buffered saline, PBS pH 7.4, 21 °C, 24 h shaking (CN-chalcone 4: 2 h, estimate), read-out: solubility in saline buffer; for maximal concentration dissolved with HP-βCD: physiological solution with 10% HP-βCD, 21 °C (CN-chalcone 4: 2 h, estimate)
Procedure: as §1
Thermodynamic solubility was measured by dissolving the compounds up to saturation in a pH 7.4 phosphate-buffered saline (PBS) with the following composition: 137.5 mM NaCl, 2.7 mM KCl, 4.3 mM Na2HPO4, and 1.4 mM KH2PO4 supplemented or not with 10% hydroxypropyl-β-cyclodextrin (HP-βCD). Samples were shaken for 24 h at 21 ± 1 °C. Saturation was confirmed by the presence of undissolved powder. After ultracentrifugation, the concentration in the supernatant was measured by an HPLC procedure using a calibration curve established for each compound by diluting a 10 mM DMSO stock solution to adapted concentrations. Due to rapid degradation of CN-chalcone 4, solubility was determined after 2 h of shaking. The indicated value given for CN-chalcone 4 is thus an estimate of the solubility.

[3] = test system: CXCL12 action on forskolin-evoked cAMP responses via CXCR4; assay: cAMP determination with BRET sensor CAMYEL in HEK EGFP-hCXCR4 cells; assay type: cell-based; conditions: Homo sapiens; HEK293 EGFP-hCXCR4, 1 μM forskolin, 3 nM CXCL12; read-out: IC50, inhibition of CXCL12 effect on forskolin-evoked cAMP formation
Procedure: CXCR4 receptor coupling to adenylyl cyclase was assessed by measuring the dose-dependent inhibitory effects of chemokine with or without chalcone on forskolin-stimulated cAMP accumulation. To facilitate studies of cAMP regulation, we used a developed bioluminescence resonance energy transfer (BRET) sensor for cAMP, CAMYEL (cAMP sensor using YFP-Epac-RLuc), which can quantitatively and rapidly monitor intracellular concentrations of cAMP in cells ([47]). HEK EGFP-hCXCR4 cells were cultured to ∼80% confluence in 75-cm^2 flasks in MEM with Earle's salt supplemented with 10% fetal calf serum, 2 mM glutamine, and 1% antibiotics (penicillin/streptomycin). Cells were plated on 10-cm plates and transfected with 10 μg of CAMYEL plasmid using the calcium phosphate precipitation method. Two days later, cells were plated in 96-well solid white tissue culture plates (Greiner) at a density of 60,000 cells/well the day before cAMP assay. […] The BRET assay was carried out with a Victor Light plate reader (PerkinElmer Life Sciences). Emission signals from Renilla luciferase and YFP were measured sequentially using a BRET1 filter set (475-30/535-30). […] After 5 min, 10 μl of a Hanks' balanced salt solution of coelenterazine-H (2 μM) were added, and plates were incubated for 10 min at 37 °C before reading.

[4] = with 10% HP-βCD, read-out: Stability half-life (t1/2), lung homogenate, 10% β-cyclodextrine (converted)

## COc1cc(/C=C(\C#N)C(=O)c2ccc(Cl)cc2)ccc1O [CN-chalcone 4, (E)-2-(4-chlorobenzoyl)-3-(4-hydroxy-3-methoxyphenyl)acrylonitrile]
[1]; 10% HP-βCD, read-out: half-life in lung homogenate in the presence of HP-βCD
  half-life at 20 μM: 40 min
[1]; [4]
  half-life at 20 μM: 36 min
[1]; read-out: Stability half-life (t1/2), lung homogenate (converted)
  half-life at 20 μM: 24 min
[1]; read-out: t½ in lung homogenate
  half-life at 20 μM: 25 min
[2]
  solubility: 16 ± 2 µM (≈ 5.02 µg/mL)
  maximal concentration dissolved with HP-βCD: 493 ± 36 µM
[3]
  IC50: 6.9 ± 0.4 µM

## COc1cc(/C=C/C(=O)c2ccc(Cl)cc2)ccc1O [chalcone 4]
[1]; at 16 h
  percentage of starting molecule recovered, lung homogenate, 10% β-cyclodextrine: 66%
[1]; [4]
  half-life at 20 μM: > 960 min
[2]
  solubility: 9 ± 1 µM (≈ 2.6 µg/mL)
  maximal concentration dissolved with HP-βCD: 690 ± 44 µM
[3]
  IC50: 4.1 ± 0.3 µM
